SMILES strings stand for the structures.

As a reminder, the MIC90 is an inhibitory concentration at the 90% level, which refers to growth in some studies and to a panel of isolates in others. The MIC is the lowest concentration that inhibits growth of the organism.

Holding throughout (assay type): functional
The subject of experiment [1] is Mycolicibacterium smegmatis. Description: Antimycobacterial activity against Mycobacterium smegmatis incubated for 48 hrs by resazurin microplate assay. Background: Alamar Blue is a resazurin reagent that responds to reducing activity.
A further experiment concerns Escherichia coli. Briefly: Antibacterial activity against Escherichia coli incubated for 16 to 18 hrs by broth microdilution assay. (In general: Dilution methods test growth across graded concentrations, often in twofold steps.)
A further experiment has as its system Staphylococcus aureus. Description: Antibacterial activity against Staphylococcus aureus incubated for 16 to 18 hrs by broth microdilution assay.
Experiment [2] relates to Mycolicibacterium smegmatis. Description: Potentiation of vancomycin-induced antimycobacterial activity against Mycobacterium smegmatis assessed as vancomycin MIC90 at 25 ug/ml after 48 hrs by resazurin microplate assay (reference value: 0.5 ug/ml).
Experiment [3] deals with Mycolicibacterium smegmatis. Description: Potentiation of erythromycin-induced antimycobacterial activity against Mycobacterium smegmatis assessed as erythromycin MIC90 at 25 ug/ml after 48 hrs by resazurin microplate assay (reference value: 10 ug/ml).
Experiment [4] has as its system Mycolicibacterium smegmatis. Briefly: Potentiation of streptomycin-induced antimycobacterial activity against Mycobacterium smegmatis assessed as streptomycin MIC90 at 25 ug/ml after 48 hrs by resazurin microplate assay (reference value: 0.25 ug/ml).
In experiment [5] the test system is Mycolicibacterium smegmatis. Description: Potentiation of kanamycin-induced antimycobacterial activity against Mycobacterium smegmatis assessed as kanamycin MIC90 at 25 ug/ml after 48 hrs by resazurin microplate assay (reference value: 2.5 ug/ml).
Experiment [6] relates to Mycolicibacterium smegmatis. Briefly: Potentiation of isoniazid-induced antimycobacterial activity against Mycobacterium smegmatis assessed as isoniazid MIC90 at 25 ug/ml after 48 hrs by resazurin microplate assay (reference value: 200 ug/ml).
Experiment [7] deals with Mycolicibacterium smegmatis. Description: Potentiation of rifampicin-induced antimycobacterial activity against Mycobacterium smegmatis assessed as rifampicin MIC90 at 25 ug/ml after 48 hrs by resazurin microplate assay (reference value: 8 ug/ml).
The subject of experiment [8] is Mycolicibacterium smegmatis. Description: Potentiation of erythromycin-induced antimycobacterial activity against Mycobacterium smegmatis assessed as reduction in erythromycin MIC90 at 25 ug/ml after 48 hrs by resazurin microplate assay relative to control.

In the case of `O=Cc1cccc2c1[C@H]1[C@@H]3OC(=O)c4cccc(C=O)c4[C@@H]3[C@H]1OC2=O`, the MIC90 in experiment [1] was over 25 µg/mL. Further, the MIC in the experiment with Escherichia coli and with Staphylococcus aureus was over 128 µg/mL in each case.
Consider `C[C@@H]1OCC2=C(CCOC2=O)[C@@H]1CO`, for which, in [1], the MIC90 was over 25 µg/mL. In addition, the MIC against Escherichia coli and against Staphylococcus aureus was over 128 µg/mL each time.
On to `O=Cc1cccc2c(=O)occc12`, for which the MIC90 in [1] was over 25 µg/mL; in experiment [2] it was 2.5 µg/mL; in [3], 1.25 µg/mL; in experiment [4], 0.125 µg/mL; in experiment [5], 1 µg/mL; in experiment [6] it was 100 µg/mL. In addition, in [7], the MIC90 stood at 8 µg/mL. The MIC with Escherichia coli and with Staphylococcus aureus was over 128 µg/mL each time. Also, the “fold change (FC)” value in [8] came out at 8.
As to `C[C@H]1[C@@H]2C(=O)OCC[C@@H]2C[C@H]1O`, the MIC90 in experiment [1] is over 25 µg/mL. Also, the MIC in the experiment with Escherichia coli and with Staphylococcus aureus was over 128 µg/mL in each case.
For `C[C@@H]1OC=C2C(=O)OCC[C@H]2[C@@H]1C(=O)O`, the MIC90 in experiment [1] is over 25 µg/mL. The minimal inhibitory concentration (MIC) with Escherichia coli and against Staphylococcus aureus was over 128 µg/mL throughout.
For `C[C@@H]1OCC2=C(CCOC2=O)[C@H]1CO`, the MIC90 is over 25 µg/mL in experiment [1]; 0.125 µg/mL in experiment [2]; 1.25 µg/mL in [3]; 0.125 µg/mL in experiment [4]; 1 µg/mL in [5]; 100 µg/mL in [6]. Also, in [7], the MIC90 stood at 8 µg/mL. For the same compound, the MIC in the experiment with Escherichia coli and with Staphylococcus aureus was over 128 µg/mL in each case. In addition, in [8], the “fold change (FC)” value worked out at 8.
On to `COc1cc(/C=C/C(=O)OCCCCCCCCCCCCCCCCCCCCCCCCCCCCCC=O)ccc1O`, for which the MIC90 in experiment [1] is over 25 µg/mL; in [2], 2.5 µg/mL; in [3], 2.5 µg/mL; in experiment [4], 0.125 µg/mL; in [5], 1 µg/mL; in [6], 100 µg/mL. Moreover, the MIC90 in experiment [7] came out at 8 µg/mL. Also, the minimum inhibitory concentration (MIC) in the experiment with Escherichia coli and in the experiment with Staphylococcus aureus was over 128 µg/mL each time.
`C/C=C1\COC(OC)C2=C1CCOC2=O` (centres undefined): in experiment [1], the MIC90 was over 25 µg/mL. The MIC against Escherichia coli and against Staphylococcus aureus was over 128 µg/mL in each case.
For `C[C@@H]1Cc2cccc(O)c2C(=O)O1` [(-)-(R)-MELLEIN], the MIC90 in experiment [1] is over 25 µg/mL; in experiment [2], 2.5 µg/mL; in experiment [3], 0.625 µg/mL; in experiment [4] it was 0.125 µg/mL; in experiment [5], 1 µg/mL; in [6] it was 100 µg/mL. Also, in experiment [7], the MIC90 turned out to be 8 µg/mL. Moreover, the MIC in the experiment on Escherichia coli and with Staphylococcus aureus was over 128 µg/mL each time. Also, the “fold change (FC)” value in experiment [8] is 16.

(Values after ChEMBL document CHEMBL4477158, “Constituents of Fagraea fragrans with Antimycobacterial Activity in Combination with Erythromycin” (2016).)
